Data on two compounds can be found in patent publication US20230065562A1, “DUAL CONTROLS FOR THERAPEUTIC CELL ACTIVATION OR ELIMINATION” (Bellicum Pharmaceuticals, Inc., priority 2015, published 2023).

A value given as a limit tells only on which side of the number the result lay.

Data set [1] concerns iC9 T cells (pBP0220, GFP-Fluc). The data set is described as follows: In vivo apoptotic activation in NSG mice, iC9 T cells (IVIS imaging, spleen FACS). Also noted: species or system mouse. On the procedure:
PBMCs from donor 676 were activated and co-transduced with one of the off-switches and GFP-Fluc retroviruses. Eleven days after transduction, cells were analyzed for transduction efficiency with GFP and anti-CD3/anti-CD19 antibodies (FIG. 109A). […] The CD19^+ MFI for the different T cell populations were: iC9=15.07, iRC9=14.38, and iRmC9=13.39. The cells were collected, counted, washed, and resuspended at 1×10^6 cells in 100 μl PBS for each tail vein mouse injection (Table 10) (time=−18 hr). […] IVIS imaging was performed at −14, 0, 5, 24 and 29 hours. Mice were sacrificed and spleens were collected for FACS analysis with hCD3, hCD19 and mCD45 antibodies. […] The higher percentage of remaining iRmC9 T cells observed may be due to an artifact of normalizing the no drug group.
PBMCs from donor 676 were activated and co-transduced with retroviruses encoding the pBP0220, 1310, 1327 vectors and the GFP-Fluc plasmid. (FIG. 109A) Eleven days post transduction, the cells were analyzed for CD19 and GFP transduction efficiency prior to injection into mice. (FIGS. 109B & C) NSG mice were injected i.v. with 107 T cells co-transduced with GFP-Fluc per mouse and suicide drugs were injected i.p. the next day. Bioluminescence of cells was assessed at −14, 0, 5, 24, and 29 hours post-drug administration. […]

For data set [2], the system named is HLA-B7+Bob-1+ U266 multiple myeloma. As to the kind of experiment: iMC-Bob-1 TCR cytotoxicity and IL-2 secretion against U266. Type of data set: cell-based. From the text: FIG. 120: (A) iMC-Bob-1 TCR-mediated cytotoxicity against HLA-B7^+Bob-1^+ U266 multiple myeloma is rimiducid-independent. […] Go156 TCR is a negative control TCR.
Data set [3] deals with iRC9 (pBP1310 & 1311) (Homo sapiens, UniProt P42345+P62942). As to the kind of experiment: SRα-SEAP assay of drug specificity, iRC9 switch, 293 cells. The settings on record: SRα-SEAP reporter, FIG. 108A.
Data set [4] relates to iCasp9M.IRES.GFPhigh-transduced CTLs in LCL xenograft. As to the kind of experiment: SCID mouse-human xenograft model, elimination of iCasp9M-transduced CTLs. It counts as in vivo, NOD/SCID mice. To be noted: single dose of CID (50 μg AP20187 i.p.), 3 days after. Here is the method:
Non-obese diabetic severe combined immunodeficient (NOD/SCID) mice, 6 to 8 weeks of age, were irradiated (250 rad) and injected subcutaneously in the right flank with 10×10^6 to 15×10^6 LCLs resuspended in Matrigel (BD Bioscience). Two weeks later mice bearing tumors that were approximately 0.5 cm in diameter were injected into the tail vein with a 1:1 mixture of nontransduced and iCasp9.I.GFPhigh-transduced EBV CTLs (total 15×10^6). At 4 to 6 hours prior and 3 days after CTL infusion, mice were injected intraperitoneally with recombinant hIL-2 (2000 U; Proleukin; Chiron). […] By FACS analysis, the number of GFP^+ cells within the gated CD3^+ population was evaluated. […]
The function of iCasp9M also was evaluated in transduced EBV-CTLs in vivo. […] Three days after CID/carrier administration, tumors were analyzed for human CD3^+/GFP^+ cells. […]
The function of iCasp9M in vivo, was assayed. […] On day 3 after CTL administration, mice received either CID (50 µg AP20187; (black diamonds, n=6) or carrier only (black squares, n=5) and on day 6 the presence of human CD3^+/GFP^+ T cells in the tumors was analyzed. Human CD3^+ T cells isolated from the tumors of a control group of mice that received only nontransduced CTLs (15×10^6 CTLs; n=4) were used as a negative control for the analysis of CD3^+/GFP^+ T cells within the tumors.

The test system of data set [5] is iCasp9-transduced MSCs. The data set is described as follows: Apoptosis studies in vitro in iCasp9-ΔCD19 transduced MSCs. It counts as cell-based, human. Here is the method: Undifferentiated MSCs. The chemical inducer of dimerization (CID) (AP20187; ARIAD Pharmaceuticals, Cambridge, Mass.) was added at 50 nM to iCasp9-transduced MSCs cultures in complete medium. Apoptosis was evaluated 24 hours later by FACS analysis, after cell harvest and staining with annexin V-PE and 7-AAD in annexin V binding buffer (BD Biosciences, San Diego, Calif.). Control iCasp9-transduced MSCs were maintained in culture without exposure to CID.
Differentiated MSCs. Transduced MSCs were differentiated as presented above. At the end of the differentiation period, CID was added to the differentiation media at 50 nM. Cells were stained appropriately for the tissue being studied, as presented above, and a contrast stain (methylene azure or methylene blue) was used to evaluate the nuclear and cytoplasmic morphology. In parallel, tissues were processed for terminal deoxynucleotidyl-transferase dUTP nick end labeling (TUNEL) assay as per manufacturer instructions (In Situ Cell Death Detection Kit, Roche Diagnostics, Mannheim, Germany). For each time point, four random fields were photographed at a final magnification of 40× and the images were analyzed with ImageJ software version 1.430 (NIH, Bethesda, Md.). Cell density was calculated as the number of nuclei (DAPI positivity) per unit of surface area (in mm^2). The percentage of apoptotic cells was determined as the ratio of the number of nuclei with positive TUNEL signal (FITC positivity) to the total number of nuclei. Controls were maintained in culture without CID.

Chain of iRC9 (pBP1310 & 1311) (P42345 2025-2113): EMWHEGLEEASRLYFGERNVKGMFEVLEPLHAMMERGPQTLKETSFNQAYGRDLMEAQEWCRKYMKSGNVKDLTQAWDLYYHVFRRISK
Chain of iRC9 (pBP1310 & 1311) (P62942 2-107): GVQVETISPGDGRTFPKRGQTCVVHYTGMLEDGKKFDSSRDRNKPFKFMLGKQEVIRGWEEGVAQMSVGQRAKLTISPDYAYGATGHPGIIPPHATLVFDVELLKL
Chain of iRC9 (pBP1310 & 1311) (P55211 135-416 partner limits assumed): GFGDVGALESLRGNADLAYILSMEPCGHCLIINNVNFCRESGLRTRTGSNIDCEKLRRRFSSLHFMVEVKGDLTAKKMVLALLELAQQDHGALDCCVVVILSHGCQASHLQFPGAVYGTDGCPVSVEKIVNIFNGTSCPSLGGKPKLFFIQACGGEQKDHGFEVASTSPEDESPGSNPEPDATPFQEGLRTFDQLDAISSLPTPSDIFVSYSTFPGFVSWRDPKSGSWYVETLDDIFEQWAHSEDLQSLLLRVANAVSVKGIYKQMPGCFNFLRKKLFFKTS

Consider `CC[C@H](C(=O)N1CCCC[C@H]1C(=O)O[C@H](CCc1ccc(OC)c(OC)c1)c1cccc(OCC(=O)NCCNC(=O)COc2cccc([C@@H](CCc3ccc(OC)c(OC)c3)OC(=O)[C@@H]3CCCCN3C(=O)[C@@H](CC)c3cc(OC)c(OC)c(OC)c3)c2)c1)c1cc(OC)c(OC)c(OC)c1` [rimiducid], for which, in data set [1] (5 mg/kg rimiducid i.p., spleen FACS, FIG. 109D), the “iC9 T cells remained in splenocytes compared to no drug- or rapamycin-treated groups” value is on record as ~20%. In data set [1] (NSG mice, 5 mg/kg rimiducid or 10 mg/kg rapamycin i.p., FIGS. 109B & C), the “removal of iC9 T cells / bioluminescence signal (IVIS imaging)” value is recorded as “induced significant removal”. For the same compound, the “iMC-Bob-1 TCR-mediated cytotoxicity against U266” value in data set [2] (FIG. 120A) is given as “rimiducid-independent”. The “IL-2 secretion, Bob-1 TCR with rimiducid-driven iMC costimulation, U266” value in data set [2] (FIG. 120B) is reported as “maximal IL-2 secretion”. Besides, in data set [3], the “ligand required to activate the iRC9 switch” value is recorded as > 100 nM.

Consider `CC[C@H](C(=O)N1CCCC[C@H]1C(=O)O[C@H](CCc1ccc(OC)c(OC)c1)c1cccc(OCC(=O)NCC(CNC(=O)COc2cccc([C@@H](CCc3ccc(OC)c(OC)c3)OC(=O)[C@@H]3CCCCN3C(=O)[C@@H](CC)c3cc(OC)c(OC)c(OC)c3)c2)CN(C)C)c1)c1cc(OC)c(OC)c(OC)c1` [AP20187], for which the “reduction in the number of human CD3+/GFP+ T cells versus carrier” value in data set [4] (listed as CID) is > 99%. Also, the “reduction in the number of human CD3+/GFP+ T cells versus carrier” value in data set [4] (listed as dimerizer) was “more than 99%”. Moreover, in data set [5] (CID 50 nM), the “apoptosis index of iCasp9-negative cells” value came to 20±7% and the “apoptotic death of iCasp9-positive cells within 24 hrs” value was 93±1%. For the same compound, in data set [5] (CID 50 nM, 24 hours, FACS), the “annexin positive, negative population (iCasp neg/CID)” value is on record as 19% and the “annexin positive, non-transduced control MSC (Control/CID)” value turned out to be 15%. Besides, the “cell density after 24 hours” value in data set [5] (adipocytic differentiated iCasp9-positive cells, 50 nM CID, from 584) is given as < 14 cells/mm^2. For the same compound, the “apoptotic cells among magnetically immunoselected iCasp9-CD19-positive cells” value in data set [5] (after exposure to CID) is given as “More than 95%”.
